Literature values as cited in patent US6825382B2, “Trifluoromethylepinephrine compounds and methods of making and using thereof” (The United States of America as represented by the …, priority 2002, dated 2004).
Read-outs that look alike come from different tables or passages of the source.

Tests used:
[1] = 1a versus 1b

Row | Compound | biological activity of (R)-enantiomer relative to (S)-enantiomer [1] | epinephrine remaining, of the initial concentration (dental preparations stored under clinical conditions) | epinephrine remaining, of the initial concentration (dental preparations stored under optimal conditions) [%]
1 | CNC[C@H](O)c1ccc(O)c(O)c1 [1a, (−)-epinephrine] | 15-20 times | – | –
2 | CNC[C@H](O)c1ccc(O)c(O)c1 [epinephrine] | – | less than 70% | 85 to 90
